Assay results as given in the Kinase Knowledgebase extract (Sharma et al. 2016).

Assays:
PIK3CB (Human) = PIK3CB (Human) (UniProt P42338); assay: Assessment of PIK3CB Kinase Activity
PIK3CG (human) = PIK3CG (human) (UniProt P48736); assay: Assessment of PIK3CG Kinase Activity
PIK3CD (Human) = PIK3CD (Human) (UniProt O00329); assay: Assessment of PIK3CD Kinase Activity
PIK3CA (human) = PIK3CA (human) (UniProt P42336); assay: Assessment of PIK3CA Kinase Activity
PIK3CA (human), sequence (P42336 whole entry, looked up): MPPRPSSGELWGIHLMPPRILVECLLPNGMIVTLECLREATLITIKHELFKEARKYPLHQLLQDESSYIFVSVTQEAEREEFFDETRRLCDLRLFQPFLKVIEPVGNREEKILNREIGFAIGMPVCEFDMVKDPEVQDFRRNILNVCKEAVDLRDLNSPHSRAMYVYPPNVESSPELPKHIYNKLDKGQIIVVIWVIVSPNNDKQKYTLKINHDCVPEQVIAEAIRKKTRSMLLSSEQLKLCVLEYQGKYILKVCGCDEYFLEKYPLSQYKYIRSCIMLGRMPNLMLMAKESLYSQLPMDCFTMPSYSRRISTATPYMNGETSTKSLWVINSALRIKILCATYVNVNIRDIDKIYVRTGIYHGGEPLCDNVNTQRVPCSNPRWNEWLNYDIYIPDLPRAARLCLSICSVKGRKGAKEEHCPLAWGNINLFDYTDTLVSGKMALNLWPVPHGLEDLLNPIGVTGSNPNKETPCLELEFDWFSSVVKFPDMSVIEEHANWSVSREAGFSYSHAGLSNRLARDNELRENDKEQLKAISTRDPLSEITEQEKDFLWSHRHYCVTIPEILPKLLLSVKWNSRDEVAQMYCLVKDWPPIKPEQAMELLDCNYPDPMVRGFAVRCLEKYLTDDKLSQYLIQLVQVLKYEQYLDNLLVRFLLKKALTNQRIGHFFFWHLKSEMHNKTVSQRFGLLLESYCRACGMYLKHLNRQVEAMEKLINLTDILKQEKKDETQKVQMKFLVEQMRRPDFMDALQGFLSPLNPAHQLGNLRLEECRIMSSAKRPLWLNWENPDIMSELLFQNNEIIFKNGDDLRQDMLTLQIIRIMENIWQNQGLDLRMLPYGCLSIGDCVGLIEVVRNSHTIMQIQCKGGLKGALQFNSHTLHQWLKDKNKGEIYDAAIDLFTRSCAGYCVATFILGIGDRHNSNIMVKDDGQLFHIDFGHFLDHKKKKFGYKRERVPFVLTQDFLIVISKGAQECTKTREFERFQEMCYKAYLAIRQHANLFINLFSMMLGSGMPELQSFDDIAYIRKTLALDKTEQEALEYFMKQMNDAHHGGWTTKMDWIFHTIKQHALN

PIK3CB (Human), sequence (P42338 whole entry, looked up): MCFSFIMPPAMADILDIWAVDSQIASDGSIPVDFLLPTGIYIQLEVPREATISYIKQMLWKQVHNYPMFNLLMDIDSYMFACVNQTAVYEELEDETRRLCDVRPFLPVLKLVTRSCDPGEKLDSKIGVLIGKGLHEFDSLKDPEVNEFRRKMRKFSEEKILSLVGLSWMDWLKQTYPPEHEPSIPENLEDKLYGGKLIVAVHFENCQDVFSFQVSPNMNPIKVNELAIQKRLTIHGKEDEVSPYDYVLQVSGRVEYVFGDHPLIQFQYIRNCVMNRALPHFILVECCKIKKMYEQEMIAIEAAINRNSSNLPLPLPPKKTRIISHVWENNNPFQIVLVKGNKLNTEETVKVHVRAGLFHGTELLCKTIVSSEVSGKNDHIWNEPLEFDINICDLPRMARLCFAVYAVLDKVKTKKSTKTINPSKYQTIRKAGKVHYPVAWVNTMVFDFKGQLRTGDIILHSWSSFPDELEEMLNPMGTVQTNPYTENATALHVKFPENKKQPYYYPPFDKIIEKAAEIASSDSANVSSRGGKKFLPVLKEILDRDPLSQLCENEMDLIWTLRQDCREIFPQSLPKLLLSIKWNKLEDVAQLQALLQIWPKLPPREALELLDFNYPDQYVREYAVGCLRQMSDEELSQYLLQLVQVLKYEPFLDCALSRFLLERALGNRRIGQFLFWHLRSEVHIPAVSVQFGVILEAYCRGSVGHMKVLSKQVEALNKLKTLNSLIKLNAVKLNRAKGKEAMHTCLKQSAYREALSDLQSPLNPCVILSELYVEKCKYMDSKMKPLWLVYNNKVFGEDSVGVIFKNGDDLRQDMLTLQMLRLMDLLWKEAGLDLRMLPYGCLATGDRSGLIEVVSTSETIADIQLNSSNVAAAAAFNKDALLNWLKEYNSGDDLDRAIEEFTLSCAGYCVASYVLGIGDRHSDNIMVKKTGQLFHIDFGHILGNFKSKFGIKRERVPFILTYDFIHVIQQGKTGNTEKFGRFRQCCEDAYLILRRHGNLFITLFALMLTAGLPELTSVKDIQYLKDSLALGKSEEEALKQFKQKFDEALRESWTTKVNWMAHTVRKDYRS
PIK3CG (human), sequence (P48736 whole entry, looked up): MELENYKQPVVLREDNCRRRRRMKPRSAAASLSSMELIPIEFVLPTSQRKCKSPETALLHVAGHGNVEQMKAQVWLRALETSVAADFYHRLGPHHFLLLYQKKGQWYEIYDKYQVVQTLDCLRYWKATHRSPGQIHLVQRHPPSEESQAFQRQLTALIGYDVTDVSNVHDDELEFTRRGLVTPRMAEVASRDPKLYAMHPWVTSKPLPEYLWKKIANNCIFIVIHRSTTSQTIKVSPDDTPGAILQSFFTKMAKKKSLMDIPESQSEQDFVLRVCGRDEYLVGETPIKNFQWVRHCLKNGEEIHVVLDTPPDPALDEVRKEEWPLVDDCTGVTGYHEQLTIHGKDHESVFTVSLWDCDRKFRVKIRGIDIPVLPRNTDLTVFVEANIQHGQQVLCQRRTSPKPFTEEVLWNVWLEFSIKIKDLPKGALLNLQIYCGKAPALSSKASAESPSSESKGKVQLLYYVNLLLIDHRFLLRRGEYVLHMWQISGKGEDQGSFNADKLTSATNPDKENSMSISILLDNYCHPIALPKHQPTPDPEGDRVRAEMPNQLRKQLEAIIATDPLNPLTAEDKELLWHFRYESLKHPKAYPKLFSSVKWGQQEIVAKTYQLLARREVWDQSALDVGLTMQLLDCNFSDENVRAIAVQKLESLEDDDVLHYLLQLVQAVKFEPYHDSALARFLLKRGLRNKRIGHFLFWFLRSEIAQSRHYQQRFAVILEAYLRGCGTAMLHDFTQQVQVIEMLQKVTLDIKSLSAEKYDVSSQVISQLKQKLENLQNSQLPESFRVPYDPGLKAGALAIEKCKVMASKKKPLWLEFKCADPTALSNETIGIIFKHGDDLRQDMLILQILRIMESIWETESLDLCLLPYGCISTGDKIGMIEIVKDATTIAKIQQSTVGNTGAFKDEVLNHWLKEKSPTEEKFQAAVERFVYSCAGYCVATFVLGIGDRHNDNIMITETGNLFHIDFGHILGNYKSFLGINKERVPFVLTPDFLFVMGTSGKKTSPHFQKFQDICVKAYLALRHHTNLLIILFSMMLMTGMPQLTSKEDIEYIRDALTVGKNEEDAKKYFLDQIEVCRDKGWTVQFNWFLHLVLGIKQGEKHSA
PIK3CD (Human), sequence (O00329 whole entry, looked up): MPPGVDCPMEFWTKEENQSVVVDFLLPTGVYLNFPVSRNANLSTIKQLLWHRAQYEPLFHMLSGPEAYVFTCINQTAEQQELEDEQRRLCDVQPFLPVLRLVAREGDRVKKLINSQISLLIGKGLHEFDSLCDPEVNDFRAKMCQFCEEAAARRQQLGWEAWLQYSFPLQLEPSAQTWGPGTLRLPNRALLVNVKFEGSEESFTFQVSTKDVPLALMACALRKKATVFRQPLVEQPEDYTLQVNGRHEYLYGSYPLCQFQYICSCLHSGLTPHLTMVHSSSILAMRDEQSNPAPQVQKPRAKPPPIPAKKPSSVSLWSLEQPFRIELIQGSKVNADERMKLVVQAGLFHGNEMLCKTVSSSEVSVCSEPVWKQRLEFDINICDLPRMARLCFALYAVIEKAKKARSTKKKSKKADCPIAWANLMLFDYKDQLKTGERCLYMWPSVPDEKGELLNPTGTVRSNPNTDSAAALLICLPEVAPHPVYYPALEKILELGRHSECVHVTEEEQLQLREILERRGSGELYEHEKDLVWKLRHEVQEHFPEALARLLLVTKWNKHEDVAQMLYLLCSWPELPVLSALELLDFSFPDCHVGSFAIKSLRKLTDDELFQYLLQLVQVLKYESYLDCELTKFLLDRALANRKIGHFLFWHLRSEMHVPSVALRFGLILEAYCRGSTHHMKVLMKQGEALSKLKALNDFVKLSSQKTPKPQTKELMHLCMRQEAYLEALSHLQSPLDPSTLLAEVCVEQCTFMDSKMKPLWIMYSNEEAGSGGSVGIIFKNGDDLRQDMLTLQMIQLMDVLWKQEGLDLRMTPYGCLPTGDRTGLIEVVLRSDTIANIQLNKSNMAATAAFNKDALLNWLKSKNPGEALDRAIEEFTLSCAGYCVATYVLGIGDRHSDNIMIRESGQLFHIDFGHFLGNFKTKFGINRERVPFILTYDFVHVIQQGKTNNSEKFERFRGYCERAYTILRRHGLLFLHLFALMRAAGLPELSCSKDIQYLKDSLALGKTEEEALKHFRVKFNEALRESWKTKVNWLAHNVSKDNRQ

Compound	IC50 (PIK3CB (Human)) [µM]	IC50 (PIK3CG (human)) [µM]	IC50 (PIK3CD (Human)) [µM]	IC50 (PIK3CA (human)) [µM]
O=C(NO)c1cnc(N2CCN(Cc3cc4nc(-c5cccc6[nH]ncc56)nc(N5CCOCC5)c4s3)CC2)nc1	< 0.1	< 0.1	0.1 to 1	< 0.1
O=C(NO)c1cnc(N(CCO)Cc2cc3nc(-c4cccc5[nH]ncc45)nc(N4CCOCC4)c3s2)nc1	< 0.1			< 0.1
CN(Cc1cc2nc(-c3cccc4[nH]ncc34)nc(N3CCOCC3)c2s1)c1ncc(C(=O)NO)cn1	< 0.1	< 0.1	< 0.1	< 0.1
O=C(NO)c1cnc(NCc2cc3nc(-c4cccc5[nH]ncc45)nc(N4CCOCC4)c3s2)nc1	< 0.1	< 0.1	< 0.1	< 0.1
O=C(CCCCCCNc1cc2nc(-c3cccc4[nH]ncc34)nc(N3CCOCC3)c2s1)NO				0.1 to 1
Nc1ccc(-c2nc(N3CCOCC3)c3sc(CNc4ncc(C(=O)NO)cn4)cc3n2)cc1				0.1 to 1
CN(Cc1cc2nc(-c3ccc4[nH]ccc4c3)nc(N3CCOCC3)c2s1)c1ncc(C(=O)NO)cn1				0.1 to 1
CCc1ncc(-c2nc(N3CCOCC3)c3sc(CN(C)c4ncc(C(=O)NO)cn4)cc3n2)cn1				< 0.1
Cc1ccc(-c2nc(N3CCOCC3)c3sc(CN(C)c4ncc(C(=O)NO)cn4)cc3n2)cc1				0.1 to 1
CN(Cc1cc2nc(-c3cccc4[nH]ncc34)nc(N3CCCCC3)c2s1)c1ncc(C(=O)NO)cn1				0.1 to 1
COCc1cccc(-c2nc(N3CCOCC3)c3sc(CN(C)c4ncc(C(=O)NO)cn4)cc3n2)c1				0.1 to 1
COc1cccc(-c2nc(N3CCOCC3)c3sc(CN(C)c4ncc(C(=O)NO)cn4)cc3n2)c1				0.1 to 1
C#CCCN(Cc1cc2nc(-c3cccc4[nH]ncc34)nc(N3CCOCC3)c2s1)c1ncc(C(=O)NO)cn1				< 0.1
CC(=O)OCCN(Cc1cc2nc(-c3cccc4[nH]ncc34)nc(N3CCOCC3)c2s1)c1ncc(C(=O)NO)cn1				< 0.1
CN(Cc1cc2nc(-c3cn[nH]c3)nc(N3CCOCC3)c2s1)c1ncc(C(=O)NO)cn1				0.1 to 1
N#CCCN(Cc1cc2nc(-c3cccc4[nH]ncc34)nc(N3CCOCC3)c2s1)c1ncc(C(=O)NO)cn1				< 0.1
CN(Cc1cc2nc(-c3cccc4[nH]ncc34)nc(Nc3ccccc3)c2s1)c1ncc(C(=O)NO)cn1				< 0.1
